One assay deals with T1, MERTK (Homo sapiens, UniProt Q12866).
T1 sequence (Q12866 21-999): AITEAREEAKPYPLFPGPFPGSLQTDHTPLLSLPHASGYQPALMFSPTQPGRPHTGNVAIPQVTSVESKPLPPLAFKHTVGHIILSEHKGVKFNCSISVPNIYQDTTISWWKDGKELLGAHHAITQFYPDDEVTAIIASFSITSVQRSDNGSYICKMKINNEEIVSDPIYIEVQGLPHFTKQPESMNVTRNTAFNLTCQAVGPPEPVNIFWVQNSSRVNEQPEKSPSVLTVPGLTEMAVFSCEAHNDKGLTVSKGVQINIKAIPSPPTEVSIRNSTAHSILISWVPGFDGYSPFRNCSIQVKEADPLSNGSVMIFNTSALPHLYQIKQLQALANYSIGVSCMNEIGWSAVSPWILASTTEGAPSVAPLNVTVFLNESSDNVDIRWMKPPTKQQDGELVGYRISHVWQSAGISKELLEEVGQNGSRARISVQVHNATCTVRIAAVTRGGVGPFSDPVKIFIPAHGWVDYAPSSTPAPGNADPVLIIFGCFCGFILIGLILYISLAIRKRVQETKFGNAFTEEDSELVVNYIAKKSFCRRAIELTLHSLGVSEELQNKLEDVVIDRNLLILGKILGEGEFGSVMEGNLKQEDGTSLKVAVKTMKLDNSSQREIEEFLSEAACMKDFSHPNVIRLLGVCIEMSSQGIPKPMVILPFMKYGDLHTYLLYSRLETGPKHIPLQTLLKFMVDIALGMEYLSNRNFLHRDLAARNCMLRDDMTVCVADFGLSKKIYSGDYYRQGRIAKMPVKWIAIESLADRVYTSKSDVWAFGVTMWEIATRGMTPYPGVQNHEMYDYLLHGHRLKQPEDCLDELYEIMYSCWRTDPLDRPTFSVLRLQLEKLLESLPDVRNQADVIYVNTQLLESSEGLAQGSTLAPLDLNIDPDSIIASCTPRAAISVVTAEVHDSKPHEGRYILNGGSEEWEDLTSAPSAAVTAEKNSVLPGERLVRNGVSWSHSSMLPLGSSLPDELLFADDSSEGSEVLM
Briefly: TR-FRET kinase activity assay, MERTK. It counts as biochemical. The settings on record: for IC50: TR-FRET activity assay, ATP at Km, 60 minutes, read-out: Mer IC50. The essentials: (§1)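 Each kinase phosphorylated a fluorescent-labelled tyrosine peptide in 50 mM HEPES pH 7.5, 10 mM MgCl2, 1 mM EGTA, 0.01% Brij 35, 1 mM DTT at RT, with ATP at Km for that enzyme. After 60 min, EDTA quench and Eu-anti-phosphotyrosine antibody (30 min, dark); IC50 from TR-FRET decrease.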
(TR-FRET usually uses a lanthanide donor and a delayed reading to cut background.)

The next assay addresses T2, TYRO3 (Homo sapiens, UniProt Q06418).
T2 sequence (Q06418 41-890): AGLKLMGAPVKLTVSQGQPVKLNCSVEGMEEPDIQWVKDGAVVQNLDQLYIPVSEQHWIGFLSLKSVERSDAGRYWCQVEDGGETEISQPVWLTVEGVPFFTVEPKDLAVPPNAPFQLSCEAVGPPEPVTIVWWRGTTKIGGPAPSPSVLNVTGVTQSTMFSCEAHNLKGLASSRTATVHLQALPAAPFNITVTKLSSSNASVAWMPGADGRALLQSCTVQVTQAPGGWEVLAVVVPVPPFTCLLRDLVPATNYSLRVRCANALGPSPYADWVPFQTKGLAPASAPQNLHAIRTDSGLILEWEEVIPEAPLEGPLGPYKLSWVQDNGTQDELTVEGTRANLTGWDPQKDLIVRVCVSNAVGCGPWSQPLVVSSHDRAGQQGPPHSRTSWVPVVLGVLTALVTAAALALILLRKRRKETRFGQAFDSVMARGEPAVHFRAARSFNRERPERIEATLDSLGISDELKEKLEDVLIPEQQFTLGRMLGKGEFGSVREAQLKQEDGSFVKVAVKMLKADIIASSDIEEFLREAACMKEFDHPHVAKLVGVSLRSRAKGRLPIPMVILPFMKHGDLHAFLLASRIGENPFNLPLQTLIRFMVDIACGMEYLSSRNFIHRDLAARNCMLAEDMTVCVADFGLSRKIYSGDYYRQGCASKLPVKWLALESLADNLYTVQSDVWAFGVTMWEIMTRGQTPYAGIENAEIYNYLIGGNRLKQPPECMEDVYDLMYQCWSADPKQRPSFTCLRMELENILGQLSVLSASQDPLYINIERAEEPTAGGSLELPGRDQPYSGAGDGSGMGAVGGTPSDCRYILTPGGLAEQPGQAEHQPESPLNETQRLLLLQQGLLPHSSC
Briefly: TR-FRET kinase activity assay, TYRO3. In kind it is biochemical. Particulars: ATP at Km, 60 minutes. The essentials:
as §1

Where [1] appears, read: ratio calculated as FLT3 IC50/Mer IC50.

By IC50 is commonly meant the point on the concentration scale where inhibition reaches its midpoint. Regarding `COC[C@H](C)Nc1ncc2c(-c3cnn(C4COC4)c3)cc(-c3ccc(OC)cc3)n2n1` [Compound 502], the concentration for half-maximal inhibition (IC50) on MERTK and on TYRO3 was not above 0.1 µM in each case. The “FLT3/Mer ratio (FLT3 IC50/Mer IC50)” value on MERTK (setting [1]) was “++ (“++” represents a ratio of between 10 and 100)”.
On to `COC[C@H](C)Nc1ncc2c(-c3ccc(CC(=O)O)cc3)cc([C@H]3CC[C@H](O)CC3)n2n1` [Compound 133], for which the IC50 on MERTK and against TYRO3 was not above 0.1 µM in each case. Further, the “FLT3/Mer ratio (FLT3 IC50/Mer IC50)” value on MERTK (ratio of Mer to FLT3: FLT3 IC50/Mer IC50) is given as “+++ (“+++” represents a ratio of >100)”.
Regarding `COC[C@H](C)Nc1ncc2c(-c3cnn(C4COC4)c3)cc(C3CCOCC3)n2n1` [Compound 503], the half-inhibitory concentration (IC50) on MERTK and against TYRO3 was not above 0.1 µM throughout. Besides, the “FLT3/Mer ratio (FLT3 IC50/Mer IC50)” value on MERTK (setting [1]) is “+++ (“+++” represents a ratio of >100)”.
With `COC[C@H](C)Nc1ncc2c(CC#N)cc([C@H]3CC[C@H](O)CC3)n2n1` [Compound 497], the IC50 on MERTK and at TYRO3 was not above 0.1 µM in each case. The “FLT3/Mer ratio (FLT3 IC50/Mer IC50)” value at MERTK (setting [1]) is “+++ (“+++” represents a ratio of >100)”.
For `COC[C@H](C)Nc1ncc2c(-c3cnn(C[C@@H]4CCO4)c3)cc([C@H]3CC[C@H](O)CC3)n2n1` [Compound 478], the IC50 at MERTK and at TYRO3 was not above 0.1 µM in each case. The “FLT3/Mer ratio (FLT3 IC50/Mer IC50)” value at MERTK (setting [1]) is on record as “+++ (“+++” represents a ratio of >100)”.
For `COC[C@H](C)Nc1ncc2c(-c3cnn(C(C)(C)C(=O)N4CCC(C)(O)CC4)c3)cc([C@H]3CC[C@H](O)CC3)n2n1` [Compound 450], the IC50 at MERTK and at TYRO3 was not above 0.1 µM each time. Moreover, on MERTK (setting [1]), the “FLT3/Mer ratio (FLT3 IC50/Mer IC50)” value is given as “+++ (“+++” represents a ratio of >100)”.
With `COC[C@H](C)Nc1ncc2c(-c3cnn(C4COC4)c3)cc(-c3ccc(O)nc3)n2n1` [Compound 501], the IC50 on MERTK and against TYRO3 was not above 0.1 µM in each case. Besides, the “FLT3/Mer ratio (FLT3 IC50/Mer IC50)” value on MERTK (setting [1]) is “++ (“++” represents a ratio of between 10 and 100)”.
`COC[C@H](C)Nc1ncc2c(-c3cccc(C4CCc5nc(C)[nH]c5C4)c3)cc([C@H]3CC[C@H](O)CC3)n2n1` (stereo partly drawn) [Compound 498]: the IC50 at MERTK and at TYRO3 was not above 0.1 µM each time. Moreover, the “FLT3/Mer ratio (FLT3 IC50/Mer IC50)” value on MERTK (setting [1]) is given as “+++ (“+++” represents a ratio of >100)”.
As for `CNS(=O)(=O)c1ccc(-c2cc([C@H]3CC[C@H](O)CC3)n3nc(N[C@@H](C)COC(F)F)ncc23)cn1` [Compound 424], the IC50 on MERTK and on TYRO3 was not above 0.1 µM throughout. Further, the “FLT3/Mer ratio (FLT3 IC50/Mer IC50)” value at MERTK (setting [1]) is reported as “+++ (“+++” represents a ratio of >100)”.
`C[C@@H](CC(F)(F)F)Nc1ncc2c(C3=C[C@@H]4CC[C@H](C3)N4)cc([C@H]3CC[C@H](O)CC3)n2n1` [Compound 499]: the IC50 on MERTK and on TYRO3 was not above 0.1 µM each time. Further, the “FLT3/Mer ratio (FLT3 IC50/Mer IC50)” value at MERTK (setting [1]) was “+++ (“+++” represents a ratio of >100)”.
For the compound `COC[C@H](C)Nc1ncc2c(C3=C[C@@H]4CC[C@H](C3)N4C)cc([C@H]3CC[C@H](O)CC3)n2n1` [Compound 465], the IC50 on MERTK and on TYRO3 was not above 0.1 µM throughout. For the same compound, the “FLT3/Mer ratio (FLT3 IC50/Mer IC50)” value on MERTK (setting [1]) is on record as “+++ (“+++” represents a ratio of >100)”.
As to `CC(CC1COC1)Nc1ncc2c(-c3cnn(C4COC4)c3)cc([C@H]3CC[C@H](O)CC3)n2n1` (mixture of isomers) [Compound 447], the IC50 at MERTK and on TYRO3 was 1 to 10 µM each time. Besides, the “FLT3/Mer ratio (FLT3 IC50/Mer IC50)” value at MERTK (setting [1]) is “+ (“+” represents a ratio of >2.0 and <10)”.
On to `CCC(=O)N1CCN(c2cc(-c3cc([C@H]4CC[C@H](O)CC4)n4nc(N[C@@H](C)COC)ncc34)ccn2)CC1` [Compound 432], for which the IC50 on MERTK and against TYRO3 was not above 0.1 µM in each case. On MERTK (setting [1]), the “FLT3/Mer ratio (FLT3 IC50/Mer IC50)” value was “+++ (“+++” represents a ratio of >100)”.
